Measured values published in US5624931A, “Pyrazole derivatives” (Fujisawa Pharmaceutical Co., Ltd., priority 1991, dated 1997).

What was measured:
[1] = tested on: Interleukin-1 (IL-1) production, human peripheral blood monocyte; test: Inhibitory activity on the production of Interleukin-1 (IL-1) in LPS-stimulated purified human peripheral blood monocytes (IL-1 ELISA); assay type: cell-based; settings: 48 h, bacterial lipopolysaccharide 1 μg/10^4 cells, 2 days at 37° C., IL-1β ELISA, read-out: IC50 (inhibition of IL-1 production)
Method: (a) Inhibitory activity on the production of Interleukin-1 (IL-1)
Purified human peripheral blood monocyte were stimulated with bacterial lipopolysaccharide (1 μg/10^4 cells) in the absence or presence of appropriately diluted test compound for 2 days at 37° C. in a humidified 5% CO2 atmosphere. Culture supernatants were tested for IL-1 ELISA assay.
Test compound was dissolved in absolute DMSO (dimethyl sulfoxide) to achieve 10 mM stock solutions and was subsequently diluted in serum free RPMI1640.
IL-1 levels were quantified by a commercial ELISA kit (Ohtsuka assay, Japan) using a sandwich technique. The sensitivity levels for the detection of IL-1β were 20 pg/ml.
(§1) The inhibitory concentration that caused a 50% inhibition (IC50) was calculated by regression analysis of the dose-response data.

[2] = tested on: tumor necrosis factor (TNF) production, human peripheral blood monocyte; test: Inhibitory activity on the production of tumor necrosis factor (TNF) in LPS-stimulated purified human peripheral blood monocytes (TNF ELISA); assay type: cell-based; settings: 48 h, bacterial lipopolysaccharide 1 μg/10^4 cells, 2 days at 37° C., read-out: IC50 (inhibition of TNF production)
Method: (b) Inhibitory activity on the production of tumor necrosis factor (TNF)
Purified human peripheral blood monocyte were stimulated with bacterial lipopolysaccharide (1 μg/10^4 cells) in the absence or presence of appropriately diluted test compound for 2 days at 37° C. in a humidified 5% CO2 atmosphere. Culture supernatants were tested for TNF ELISA assay.
TNF levels were quantified by a commercial ELISA kit (Endogen, Inc. USA) using a sandwich technique. The sensitivity levels for the detection of TNF were 12 pg/ml.
as §1

SMILES: Fc1ccc(-c2nn3c(c2-c2ccncc2)NCCC3)cc1 [Example 2-(1), 2-(4-fluorophenyl)-3-(pyridin-4-yl)-4,5,6,7-tetrahydropyrazolo[1,5-a]pyrimidine]
- IC50 [1]: 38 nM
- IC50 [2]: 116 nM
